From patent US20070009532A1 (priority 2005, published 2007)

Key:
[1] = molecular target: P450 isoenzyme 3A4 (Homo sapiens, UniProt P08684); conditions: cited from earlier work
[2] = pharmacokinetic interaction with co-administered oncolytics in preclinical models; type: in vivo; conditions: several oncolytics tested in preclinical models
[3] = molecular target: T1, P-gp (Homo sapiens, UniProt P08183); experiment: substrate for P-gp efflux / duration of reversal activity in resistant cells; type: cell-based
T1 construct: relatively long duration of reversal activity in resistant cells even after the modulator has been withdrawn; endogenous in cells
T1 sequence (P08183 whole entry): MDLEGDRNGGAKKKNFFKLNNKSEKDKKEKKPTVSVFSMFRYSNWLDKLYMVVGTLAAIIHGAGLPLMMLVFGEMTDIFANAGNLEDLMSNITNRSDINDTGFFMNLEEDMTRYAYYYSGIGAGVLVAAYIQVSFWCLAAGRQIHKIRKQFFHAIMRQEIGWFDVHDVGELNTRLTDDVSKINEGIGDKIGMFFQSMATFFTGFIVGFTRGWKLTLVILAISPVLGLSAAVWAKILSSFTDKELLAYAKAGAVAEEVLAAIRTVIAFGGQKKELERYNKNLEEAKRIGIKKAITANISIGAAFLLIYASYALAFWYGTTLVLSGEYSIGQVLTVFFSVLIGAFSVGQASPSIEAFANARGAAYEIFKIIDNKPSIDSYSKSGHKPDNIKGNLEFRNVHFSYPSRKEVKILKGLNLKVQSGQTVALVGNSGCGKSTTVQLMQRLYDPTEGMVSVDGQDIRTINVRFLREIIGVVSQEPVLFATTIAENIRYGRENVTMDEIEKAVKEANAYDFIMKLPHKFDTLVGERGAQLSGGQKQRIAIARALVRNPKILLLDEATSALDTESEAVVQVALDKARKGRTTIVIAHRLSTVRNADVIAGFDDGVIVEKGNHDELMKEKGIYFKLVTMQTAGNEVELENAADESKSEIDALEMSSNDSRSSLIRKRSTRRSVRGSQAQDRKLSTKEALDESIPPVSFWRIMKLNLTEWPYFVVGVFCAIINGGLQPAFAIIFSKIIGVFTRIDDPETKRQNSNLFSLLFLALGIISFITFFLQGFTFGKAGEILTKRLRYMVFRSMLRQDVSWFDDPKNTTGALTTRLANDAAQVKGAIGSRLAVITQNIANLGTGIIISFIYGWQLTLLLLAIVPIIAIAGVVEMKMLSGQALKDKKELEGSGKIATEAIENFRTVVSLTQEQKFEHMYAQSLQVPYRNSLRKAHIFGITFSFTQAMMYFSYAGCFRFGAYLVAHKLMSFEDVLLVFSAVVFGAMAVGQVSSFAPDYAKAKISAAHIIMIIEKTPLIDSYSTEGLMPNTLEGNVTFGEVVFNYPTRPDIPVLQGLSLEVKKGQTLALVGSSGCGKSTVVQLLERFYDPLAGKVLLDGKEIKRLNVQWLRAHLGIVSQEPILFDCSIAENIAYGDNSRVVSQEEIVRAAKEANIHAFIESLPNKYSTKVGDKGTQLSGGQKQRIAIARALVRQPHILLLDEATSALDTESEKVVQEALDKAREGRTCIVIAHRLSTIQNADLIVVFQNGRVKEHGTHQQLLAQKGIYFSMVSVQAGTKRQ

P450 isoenzyme 3A4, sequence (P08684 whole entry): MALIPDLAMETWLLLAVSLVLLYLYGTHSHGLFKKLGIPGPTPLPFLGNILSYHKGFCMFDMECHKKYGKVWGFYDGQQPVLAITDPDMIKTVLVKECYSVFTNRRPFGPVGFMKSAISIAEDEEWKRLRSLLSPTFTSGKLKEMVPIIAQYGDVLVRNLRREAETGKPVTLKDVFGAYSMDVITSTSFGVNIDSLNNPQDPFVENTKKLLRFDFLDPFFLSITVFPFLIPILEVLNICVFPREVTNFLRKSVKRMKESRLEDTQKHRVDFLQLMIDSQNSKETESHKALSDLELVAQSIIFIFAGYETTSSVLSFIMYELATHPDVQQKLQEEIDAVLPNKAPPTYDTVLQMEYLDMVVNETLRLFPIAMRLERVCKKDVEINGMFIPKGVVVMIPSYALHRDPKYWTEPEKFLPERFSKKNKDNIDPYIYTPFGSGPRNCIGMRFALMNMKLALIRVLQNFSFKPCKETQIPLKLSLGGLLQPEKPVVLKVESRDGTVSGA

Row | Compound | substrate for P450 isoenzyme 3A4 [1] | pharmacokinetic (PK) interactions with oncolytics [2] | substrate for P-gp efflux [3]
1 | COc1cc(C(=O)C(=O)N2CCCC[C@H]2C(=O)OC(CCCc2cccnc2)CCCc2cccnc2)cc(OC)c1OC [biricodar] | substrates for the P450 isoenzyme 3A4 |  | 
2 | C/C=C/C[C@@H](C)C(=O)[C@H]1C(=O)N[C@@H](C(C)C)C(=O)N(C)CC(=O)N(C)[C@@H](CC(C)C)C(=O)N[C@@H](C(C)C)C(=O)N(C)[C@@H](CC(C)C)C(=O)N[C@@H](C)C(=O)N[C@H](C)C(=O)N(C)[C@@H](CC(C)C)C(=O)N(C)[C@@H](CC(C)C)C(=O)N(C)[C@@H](C(C)C)C(=O)N1C [valspodar] | substrates for the P450 isoenzyme 3A4 |  | 
3 | O[C@@H](COc1cccc2ncccc12)CN1CCN([C@@H]2c3ccccc3[C@@H]3[C@H](c4ccccc42)C3(F)F)CC1 [zosuquidar, (2R)-anti-5-3-[4-(10,11-difluoromethanodibenzosuber-5-y1)piperazin-1-y1]-2-hydroxypropoxy)quinoline] |  | minimal pharmacokinetic (PK) interactions | does not appear to be a substrate for P-gp efflux
